Measured values reported in article PMC5421785, “Citrullination only infrequently impacts peptide binding to HLA class II MHC” (PLoS ONE, 2017).
Like-named read-outs stand apart in the source and are kept apart here. Square brackets hold non-standard residues; d marks the D form. Peptide text beside a SMILES is read from it. Cit = NC(=O)NCCC[C@H](N)C(=O)O

How the values were obtained:
[1] = molecular target: T1, HLA-DRB1*04:01 (Homo sapiens, UniProt P01903+P01911, A100K/A169T/F76Y/I96L/K127E/L162R/M171V/N62H/P40V/Q125Y/R42H/S133A/S149N/S66Y/V115G/V209L/W38E); assay: HLA class II peptide binding, inhibition of radiolabeled peptide binding to purified MHC
T1 construct: EBV transformed homozygous cell lines were used as sources of MHC molecules; endogenous in cells; host or cells: EBV transformed homozygous cell lines

[2] = molecular target: T2, HLA-DRB1*01:01 (Homo sapiens, UniProt P01903+P01911, A100R/D57E/F55L/F60I/F76Y/I96L/L162R/M171V/P40L/Q125E/R42F/V115G/Y59C); assay: as above
T2 construct: EBV transformed homozygous cell lines were used as sources of MHC molecules; endogenous in cells; host or cells: EBV transformed homozygous cell lines

[3] = citrullinated 15-mer peptide (X = citrulline), purified HLA-DRB1*04:01, read-out: DRB1*04:01 binding capacity, Cit peptide (IC50 nM)
[4] = citrullinated 15-mer peptide (X = citrulline), purified HLA-DRB1*01:01, read-out: DRB1*01:01 binding capacity, Cit peptide (IC50 nM)
[5] = citrullinated peptide as listed (X at Cit position), read-out: DRB1*04:01 binding capacity Cit peptide (IC50 nM)
[6] = citrullinated peptide as listed (X at Cit position), read-out: DRB1*01:01 binding capacity Cit peptide (IC50 nM)
[7] = citrullinated 15-mer (X), purified MHC, inhibition of radiolabeled peptide binding, dash = IC50 >40,000 nM, read-out: DRB1*04:01 binding capacity, Cit peptide (IC50 nM)
[8] = citrullinated 15-mer (X), purified MHC, inhibition of radiolabeled peptide binding, dash = IC50 >40,000 nM, read-out: DRB1*01:01 binding capacity, Cit peptide (IC50 nM)

Row | Structure (SMILES) | IC50 [1, 3] | IC50 [2, 4] | other results
1 | CC[C@H](C)[C@H](NC(=O)[C@H](CC(C)C)NC(=O)[C@H](CC(C)C)NC(=O)[C@@H](NC(=O)[C@H](CCCNC(N)=O)NC(=O)[C@H](CCCCN)NC(=O)[C@H](CO)NC(=O)[C@H](Cc1c[nH]cn1)NC(=O)[C@@H](NC(=O)[C@H](CC(=O)O)NC(=O)[C@@H](NC(=O)[C@H](CC(C)C)NC(=O)[C@@H]1CCCN1C(=O)[C@@H](N)CC(C)C)C(C)C)[C@@H](C)O)[C@@H](C)O)C(=O)N[C@@H](CCCCN)C(=O)O [LPLVDTHSKXTLLIK] (H-LPLVDTHSK[Cit]TLLIK-OH) | 2590 nM | 344 nM | 
2 | CSCC[C@H](NC(=O)[C@H](Cc1ccc(O)cc1)NC(=O)[C@H](CCC(N)=O)NC(=O)[C@@H](N)CC(C)C)C(=O)N[C@@H](CCCNC(=N)N)C(=O)N[C@@H](C)C(=O)N[C@@H](CC(=O)O)C(=O)N[C@@H](CCC(N)=O)C(=O)N[C@@H](C)C(=O)N[C@@H](C)C(=O)NCC(=O)NCC(=O)N[C@@H](CC(C)C)C(=O)N[C@@H](CCCNC(N)=O)C(=O)N[C@@H](CCC(N)=O)C(=O)O [LQYMRADQAAGGLXQ] (H-LQYMRADQAAGGL[Cit]Q-OH) |  |  | IC50 [1, 5]: 83 nM; IC50 [2, 6]: 64 nM
3 | CSCC[C@H](NC(=O)[C@H](Cc1ccc(O)cc1)NC(=O)[C@H](CCC(N)=O)NC(=O)[C@@H](N)CC(C)C)C(=O)N[C@@H](CCCNC(N)=O)C(=O)N[C@@H](C)C(=O)N[C@@H](CC(=O)O)C(=O)N[C@@H](CCC(N)=O)C(=O)N[C@@H](C)C(=O)N[C@@H](C)C(=O)NCC(=O)NCC(=O)N[C@@H](CC(C)C)C(=O)N[C@@H](CCCNC(=N)N)C(=O)N[C@@H](CCC(N)=O)C(=O)O [LQYMXADQAAGGLRQ] (H-LQYM[Cit]ADQAAGGLRQ-OH) |  |  | IC50 [1, 5]: 69 nM; IC50 [2, 6]: 16 nM
4 | CC(C)C[C@H](NC(=O)[C@@H](NC(=O)[C@H](C)NC(=O)[C@H](C)NC(=O)[C@@H](NC(=O)[C@@H](N)CC(C)C)C(C)C)C(C)C)C(=O)N[C@@H](CCCNC(N)=O)C(=O)N[C@@H](CS)C(=O)N[C@@H](CCC(N)=O)C(=O)NCC(=O)N[C@@H](CCC(N)=O)C(=O)N[C@@H](CC(=O)O)C(=O)N[C@H](C(=O)N[C@@H](CCC(N)=O)C(=O)N[C@@H](CCC(=O)O)C(=O)O)C(C)C [LVAAVLXCQGQDVQE] (H-LVAAVL[Cit]CQGQDVQE-OH) | 32700 nM | 93 nM | 
5 | CC[C@H](C)[C@H](NC(=O)[C@@H](N)CCSC)C(=O)N[C@@H](CCCNC(N)=O)C(=O)N[C@@H](CC(C)C)C(=O)NCC(=O)N[C@@H](C)C(=O)N1CCC[C@H]1C(=O)N[C@@H](CCC(N)=O)C(=O)N[C@H](C(=O)N[C@@H](CC(C)C)C(=O)N[C@H](C(=O)N[C@@H](CC(C)C)C(=O)N[C@@H](CC(C)C)C(=O)N[C@H](C(=O)N[C@@H](CC(C)C)C(=O)O)[C@@H](C)O)C(C)C)[C@@H](C)O [MIXLGAPQTLVLLTL] (H-MI[Cit]LGAPQTLVLLTL-OH) | 641 nM | 15 nM | 
6 | CSCC[C@H](NC(=O)[C@H](CCCNC(N)=O)NC(=O)[C@H](CCCNC(=N)N)NC(=O)[C@H](Cc1ccc(O)cc1)NC(=O)[C@H](CO)NC(=O)[C@H](CO)NC(=O)[C@H](CO)NC(=O)[C@H](CO)NC(=O)[C@@H](NC(=O)[C@H](CO)NC(=O)[C@H](CCCNC(=N)N)NC(=O)[C@@H](NC(=O)[C@H](CO)NC(=O)[C@@H](N)CCSC)[C@@H](C)O)C(C)C)C(=O)N[C@@H](Cc1ccccc1)C(=O)O [MSTRSVSSSSYRXMF] (H-MSTRSVSSSSYR[Cit]MF-OH) |  |  | IC50 [1, 7]: 443 nM; IC50 [2, 8]: 672 nM
7 | CSCC[C@H](NC(=O)[C@H](CCCNC(=N)N)NC(=O)[C@H](CCCNC(N)=O)NC(=O)[C@H](Cc1ccc(O)cc1)NC(=O)[C@H](CO)NC(=O)[C@H](CO)NC(=O)[C@H](CO)NC(=O)[C@H](CO)NC(=O)[C@@H](NC(=O)[C@H](CO)NC(=O)[C@H](CCCNC(=N)N)NC(=O)[C@@H](NC(=O)[C@H](CO)NC(=O)[C@@H](N)CCSC)[C@@H](C)O)C(C)C)C(=O)N[C@@H](Cc1ccccc1)C(=O)O [MSTRSVSSSSYXRMF] (H-MSTRSVSSSSY[Cit]RMF-OH) |  |  | IC50 [1, 7]: 980 nM; IC50 [2, 8]: 1080 nM
8 | CSCC[C@H](NC(=O)[C@H](CCCNC(=N)N)NC(=O)[C@H](CCCNC(=N)N)NC(=O)[C@H](Cc1ccc(O)cc1)NC(=O)[C@H](CO)NC(=O)[C@H](CO)NC(=O)[C@H](CO)NC(=O)[C@H](CO)NC(=O)[C@@H](NC(=O)[C@H](CO)NC(=O)[C@H](CCCNC(N)=O)NC(=O)[C@@H](NC(=O)[C@H](CO)NC(=O)[C@@H](N)CCSC)[C@@H](C)O)C(C)C)C(=O)N[C@@H](Cc1ccccc1)C(=O)O [MSTXSVSSSSYRRMF] (H-MST[Cit]SVSSSSYRRMF-OH) |  |  | IC50 [1, 7]: 1080 nM; IC50 [2, 8]: 573 nM

Further lines, with some results ahead:

Row | IC50 [1, 3] | IC50 [2, 4] | Structure (SMILES) | other results
9 | 4950 nM | 64 nM | CC[C@H](C)[C@H](NC(=O)[C@H](CCC(=O)O)NC(=O)[C@@H](NC(=O)[C@H](CC(=O)O)NC(=O)[C@H](CC(C)C)NC(=O)[C@H](C)NC(=O)[C@@H](N)CCSC)[C@@H](C)CC)C(=O)N[C@@H](C)C(=O)N[C@H](C(=O)N[C@@H](Cc1ccc(O)cc1)C(=O)N[C@@H](CCCNC(N)=O)C(=O)N[C@@H](CCCCN)C(=O)N[C@@H](CC(C)C)C(=O)N[C@@H](CC(C)C)C(=O)N[C@@H](CCC(=O)O)C(=O)O)[C@@H](C)O [MALDIEIATYXKLLE] (H-MALDIEIATY[Cit]KLLE-OH) | 
10 | 3130 nM | 577 nM | CSCC[C@H](N)C(=O)N[C@@H](C)C(=O)N[C@@H](CCCNC(=N)N)C(=O)N[C@@H](Cc1c[nH]cn1)C(=O)N[C@@H](CC(C)C)C(=O)N[C@@H](CCCNC(N)=O)C(=O)N[C@@H](CCC(=O)O)C(=O)N[C@@H](Cc1ccc(O)cc1)C(=O)N[C@@H](CCC(N)=O)C(=O)N[C@@H](CC(=O)O)C(=O)N[C@@H](CC(C)C)C(=O)N[C@@H](CC(C)C)C(=O)N[C@@H](CC(N)=O)C(=O)N[C@H](C(=O)N[C@@H](CCCCN)C(=O)O)C(C)C [MARHLXEYQDLLNVK] (H-MARHL[Cit]EYQDLLNVK-OH) | 
11 | 4320 nM | 494 nM | CSCC[C@H](N)C(=O)N[C@@H](C)C(=O)N[C@@H](CCCNC(N)=O)C(=O)N[C@@H](Cc1c[nH]cn1)C(=O)N[C@@H](CC(C)C)C(=O)N[C@@H](CCCNC(=N)N)C(=O)N[C@@H](CCC(=O)O)C(=O)N[C@@H](Cc1ccc(O)cc1)C(=O)N[C@@H](CCC(N)=O)C(=O)N[C@@H](CC(=O)O)C(=O)N[C@@H](CC(C)C)C(=O)N[C@@H](CC(C)C)C(=O)N[C@@H](CC(N)=O)C(=O)N[C@H](C(=O)N[C@@H](CCCCN)C(=O)O)C(C)C [MAXHLREYQDLLNVK] (H-MA[Cit]HLREYQDLLNVK-OH) | 
12 | 39500 nM | 34200 nM | CC(C)C[C@H](NC(=O)[C@H](C)NC(=O)[C@H](CC(=O)O)NC(=O)[C@@H](N)CC(N)=O)C(=O)N[C@@H](CCCNC(=N)N)C(=O)N[C@@H](CCC(N)=O)C(=O)N[C@@H](C)C(=O)N[C@@H](CCCCN)C(=O)N[C@@H](CCC(N)=O)C(=O)N[C@@H](CCC(=O)O)C(=O)N[C@@H](CO)C(=O)N[C@H](C(=O)N[C@@H](CCC(=O)O)C(=O)N[C@@H](Cc1ccc(O)cc1)C(=O)N[C@@H](CCCNC(N)=O)C(=O)O)[C@@H](C)O [NDALRQAKQESTEYX] (H-NDALRQAKQESTEY[Cit]-OH) | 
13 | > 40000 nM | 22600 nM | CC(C)C[C@H](NC(=O)[C@H](C)NC(=O)[C@H](CC(=O)O)NC(=O)[C@@H](N)CC(N)=O)C(=O)N[C@@H](CCCNC(N)=O)C(=O)N[C@@H](CCC(N)=O)C(=O)N[C@@H](C)C(=O)N[C@@H](CCCCN)C(=O)N[C@@H](CCC(N)=O)C(=O)N[C@@H](CCC(=O)O)C(=O)N[C@@H](CO)C(=O)N[C@H](C(=O)N[C@@H](CCC(=O)O)C(=O)N[C@@H](Cc1ccc(O)cc1)C(=O)N[C@@H](CCCNC(=N)N)C(=O)O)[C@@H](C)O [NDALXQAKQESTEYR] (H-NDAL[Cit]QAKQESTEYR-OH) | 
